Columns and labels:
Assay in all cases: relative viability (nuclei count vs DMSO), 5 days (fraction); higher = more cells survive
ABC-1 = system: ABC-1
In short: (§1)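 Five library-drug doses in √10 steps were combined with a fixed anchor-drug dose, or a single drug was given alone, by pin tool to lung cancer cell lines in 1536-well plates the day after seeding. Nuclei were stained and counted after 5 days. Relative viability is the nuclei count in treated wells over that in vehicle wells, taken as the median of duplicate plates.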

CAL-12T = system: CAL-12T
In short: as §1

COR-L 105 = system: COR-L 105
In short: as §1

ChaGo-K-1 = system: ChaGo-K-1
In short: as §1

EMC-BAC-2 = system: EMC-BAC-2
In short: as §1

EPLC-272H = system: EPLC-272H
In short: as §1

HCC-15 = system: HCC-15
In short: as §1

HCC-78 = system: HCC-78
In short: as §1

HOP-62 = system: HOP-62
In short: as §1

LXF-289 = system: LXF-289
In short: as §1

NCI-H1666 = system: NCI-H1666
In short: as §1

NCI-H1755 = system: NCI-H1755
In short: as §1

NCI-H1915 = system: NCI-H1915
In short: as §1

NCI-H1975 = system: NCI-H1975
In short: as §1

NCI-H2023 = system: NCI-H2023
In short: as §1

NCI-H2085 = system: NCI-H2085
In short: as §1

NCI-H2126 = system: NCI-H2126
In short: as §1

NCI-H3122 = system: NCI-H3122
In short: as §1

NCI-H322M = system: NCI-H322M
In short: as §1

NCI-H358 = system: NCI-H358
In short: as §1

NCI-H441 = system: NCI-H441
In short: as §1

UMC-11 = system: UMC-11
In short: as §1

O=c1cc(-c2cccc3c2Sc2ccccc2S3)oc(N2CCOCC2)c1 + Cc1cc(Nc2cc(N3CCN(C)CC3)nc(Sc3ccc(NC(=O)C4CC4)cc3)n2)n[nH]1 [Tozasertib] (partner 0.1 µM)
relative viability (ABC-1; first compound 0.08 µM): 0.184 | relative viability (ABC-1; first compound 0.253 µM): 0.203 | relative viability (ABC-1; first compound 0.8 µM): 0.158 | relative viability (ABC-1; first compound 2.53 µM): 0.181 | relative viability (ABC-1; first compound 8 µM): 0.156 | relative viability (CAL-12T; first compound 0.08 µM): 0.296 | relative viability (CAL-12T; first compound 0.253 µM): 0.292 | relative viability (CAL-12T; first compound 0.8 µM): 0.32 | relative viability (CAL-12T; first compound 2.53 µM): 0.232 | relative viability (CAL-12T; first compound 8 µM): 0.224 | relative viability (COR-L 105; first compound 0.08 µM): 0.319 | relative viability (COR-L 105; first compound 0.253 µM): 0.357 | relative viability (COR-L 105; first compound 0.8 µM): 0.32 | relative viability (COR-L 105; first compound 2.53 µM): 0.363 | relative viability (COR-L 105; first compound 8 µM): 0.414 | relative viability (ChaGo-K-1; first compound 0.08 µM): 0.213 | relative viability (ChaGo-K-1; first compound 0.253 µM): 0.215 | relative viability (ChaGo-K-1; first compound 0.8 µM): 0.218 | relative viability (ChaGo-K-1; first compound 2.53 µM): 0.21 | relative viability (ChaGo-K-1; first compound 8 µM): 0.209 | relative viability (EMC-BAC-2; first compound 0.08 µM): 0.242 | relative viability (EMC-BAC-2; first compound 0.253 µM): 0.299 | relative viability (EMC-BAC-2; first compound 0.8 µM): 0.295 | relative viability (EMC-BAC-2; first compound 2.53 µM): 0.257 | relative viability (EMC-BAC-2; first compound 8 µM): 0.293 | relative viability (EPLC-272H; first compound 0.08 µM): 0.238 | relative viability (EPLC-272H; first compound 0.253 µM): 0.193 | relative viability (EPLC-272H; first compound 0.8 µM): 0.299 | relative viability (EPLC-272H; first compound 2.53 µM): 0.237 | relative viability (EPLC-272H; first compound 8 µM): 0.236 | relative viability (HCC-15; first compound 0.08 µM): 0.437 | relative viability (HCC-15; first compound 0.253 µM): 0.428 | relative viability (HCC-15; first compound 0.8 µM): 0.504 | relative viability (HCC-15; first compound 2.53 µM): 0.39 | relative viability (HCC-15; first compound 8 µM): 0.307 | relative viability (HCC-78; first compound 0.08 µM): 0.295 | relative viability (HCC-78; first compound 0.253 µM): 0.457 | relative viability (HCC-78; first compound 0.8 µM): 0.511 | relative viability (HCC-78; first compound 2.53 µM): 0.384 | relative viability (HCC-78; first compound 8 µM): 0.334 | relative viability (HOP-62; first compound 0.08 µM): 0.452 | relative viability (HOP-62; first compound 0.253 µM): 0.362 | relative viability (HOP-62; first compound 0.8 µM): 0.426 | relative viability (HOP-62; first compound 2.53 µM): 0.324 | relative viability (HOP-62; first compound 8 µM): 0.397 | relative viability (LXF-289; first compound 0.08 µM): 0.186 | relative viability (LXF-289; first compound 0.253 µM): 0.164 | relative viability (LXF-289; first compound 0.8 µM): 0.223 | relative viability (LXF-289; first compound 2.53 µM): 0.15 | relative viability (LXF-289; first compound 8 µM): 0.17 | relative viability (NCI-H1666; first compound 0.08 µM): 0.612 | relative viability (NCI-H1666; first compound 0.253 µM): 0.603 | relative viability (NCI-H1666; first compound 0.8 µM): 0.625 | relative viability (NCI-H1666; first compound 2.53 µM): 0.539 | relative viability (NCI-H1666; first compound 8 µM): 0.615 | relative viability (NCI-H1755; first compound 0.08 µM): 0.609 | relative viability (NCI-H1755; first compound 0.253 µM): 0.582 | relative viability (NCI-H1755; first compound 0.8 µM): 0.592 | relative viability (NCI-H1755; first compound 2.53 µM): 0.64 | relative viability (NCI-H1755; first compound 8 µM): 0.567 | relative viability (NCI-H1915; first compound 0.08 µM): 0.495 | relative viability (NCI-H1915; first compound 0.253 µM): 0.446 | relative viability (NCI-H1915; first compound 0.8 µM): 0.428 | relative viability (NCI-H1915; first compound 2.53 µM): 0.401 | relative viability (NCI-H1915; first compound 8 µM): 0.332 | relative viability (NCI-H1975; first compound 0.08 µM): 0.867 | relative viability (NCI-H1975; first compound 0.253 µM): 0.803 | relative viability (NCI-H1975; first compound 0.8 µM): 0.653 | relative viability (NCI-H1975; first compound 2.53 µM): 0.341 | relative viability (NCI-H1975; first compound 8 µM): 0.299 | relative viability (NCI-H2023; first compound 0.08 µM): 0.309 | relative viability (NCI-H2023; first compound 0.253 µM): 0.295 | relative viability (NCI-H2023; first compound 0.8 µM): 0.302 | relative viability (NCI-H2023; first compound 2.53 µM): 0.216 | relative viability (NCI-H2023; first compound 8 µM): 0.247 | relative viability (NCI-H2085; first compound 0.08 µM): 0.778 | relative viability (NCI-H2085; first compound 0.253 µM): 0.724 | relative viability (NCI-H2085; first compound 0.8 µM): 0.768 | relative viability (NCI-H2085; first compound 2.53 µM): 0.579 | relative viability (NCI-H2085; first compound 8 µM): 0.551 | relative viability (NCI-H2126; first compound 0.08 µM): 0.825 | relative viability (NCI-H2126; first compound 0.253 µM): 0.875 | relative viability (NCI-H2126; first compound 0.8 µM): 0.824 | relative viability (NCI-H2126; first compound 2.53 µM): 0.781 | relative viability (NCI-H2126; first compound 8 µM): 0.788 | relative viability (NCI-H3122; first compound 0.08 µM): 0.488 | relative viability (NCI-H3122; first compound 0.253 µM): 0.404 | relative viability (NCI-H3122; first compound 0.8 µM): 0.355 | relative viability (NCI-H3122; first compound 2.53 µM): 0.424 | relative viability (NCI-H3122; first compound 8 µM): 0.479 | relative viability (NCI-H322M; first compound 0.08 µM): 0.494 | relative viability (NCI-H322M; first compound 0.253 µM): 0.446 | relative viability (NCI-H322M; first compound 0.8 µM): 0.464 | relative viability (NCI-H322M; first compound 2.53 µM): 0.449 | relative viability (NCI-H322M; first compound 8 µM): 0.467 | relative viability (NCI-H358; first compound 0.08 µM): 0.0969 | relative viability (NCI-H358; first compound 0.253 µM): 0.101 | relative viability (NCI-H358; first compound 0.8 µM): 0.12 | relative viability (NCI-H358; first compound 2.53 µM): 0.0965 | relative viability (NCI-H358; first compound 8 µM): 0.111 | relative viability (NCI-H441; first compound 0.08 µM): 0.686 | relative viability (NCI-H441; first compound 0.253 µM): 0.693 | relative viability (NCI-H441; first compound 0.8 µM): 0.793 | relative viability (NCI-H441; first compound 2.53 µM): 0.598 | relative viability (NCI-H441; first compound 8 µM): 0.632 | relative viability (UMC-11; first compound 0.08 µM): 0.198 | relative viability (UMC-11; first compound 0.253 µM): 0.19 | relative viability (UMC-11; first compound 0.8 µM): 0.189 | relative viability (UMC-11; first compound 2.53 µM): 0.202 | relative viability (UMC-11; first compound 8 µM): 0.234
